Assay results from patent US12391641B2, “Prostaglandin EP4 receptor antagonist compounds” (NXERA PHARMA UK LIMITED, priority 2019, dated 2025).

Target: T1, Human prostaglandin E2 receptor 4 (EP4) (Homo sapiens, UniProt P35408)
T1 construct: expressed in transfected cells; host or cells: HEK293 cells transduced with EP4 BacMam virus
Experiment: cAMP Gs Functional Assay (HTRF cAMP dynamic-2), antagonism of PGE2
Format: cell-based
Details: HEK293 cells transfected with EP4 BacMam virus; PGE2 challenge at EC80 (7 nM); pIC50 converted to functional pKb with a modified Cheng Prussoff equation; read-out: Human EP4 fpKb (converted)
Procedure: Cloning, Baculovirus generation, large scale infection of HEK293 cells and membrane preparation: Human prostaglandin E2 receptor 4 (EP4) was cloned into pBacMam expression vector (GeneScript, UK). Transposition of EP4 DNA was performed using Invitrogen's Bac-to-Bac Baculovirus Expression Systems. P0 baculovirus was generated by transfecting SF9 Cells with bacmid DNA using Cellfectin II transfection reagent (ThermoFisher Scientific, UK, catalog number 10362-100). Following P0 generation P1 virus was then generated ready for large scale infection and membrane preparation. HEK293 cells were grown in DMEM+Glutamax, supplemented with 10% heat inactivated fetal bovine serum (FBS). Cells were infected at a seeding density of 3.5 million cells/mL in 500 cm^3 flasks at 5% v/v EP4 Bacman. Expression was carried out over 36 hr period at 37° C. with 5% CO2. The cells were removed using PBS and a cell scrapper. The cell culture was centrifuged at 2500 RPM for 10 mins at 4° C. The supernatant was then poured off and the pellet stored at −80° C. The pellet was defrosted and re-suspended in 15 mL of homogenising buffer (20 mM HEPES, 10 mM EDTA, pH 7.4). Then homogenised in mechanical homogeniser (VMR) for 10 seconds. The membrane was centrifuged in centrifuge tubes at 40,000 g for 15 mins at 4° C. The supernatant was poured away and re-suspended in 15 mL of homogenising buffer. Homogenised for 20 seconds. The membrane was centrifuged at 40,000 g for 45 mins at 4° C. The membrane was re-suspended in 3 mL of storage buffer (20 mM HEPES, 0.1 mM EDTA, pH 7.4) mixing well. The resulting membranes were then stored at −80° C.
cAMP Gs Functional Assay: cAMP production following EP4 receptor activation was determined using the Homogeneous Time-Resolved Fluorescence (HTRF) cAMP dynamic-2 assay (Cisbio, France). HEK293 cells were transfected using a 0.5% EP4 Bacman virus for 36 hours, before dissociating the cells, and freezing at […].
On the day of testing, increasing concentration of test compounds, alongside positive controls (1 uM ONO-AE3-208) and negative control (DMSO (Sigma-Aldrich, UK) were added to a ProxiPlate-384 Plus, White 384-shallow well Mircoplate, (PerkinElmer, USA) using the ECHO dispense.
Cells were defrosted in a water bath and resuspended in DMEM supplemented with 10% FBS before centrifuging at 1200 RPM for 5 mins to form a pellet. The pellet was resuspended in assay buffer (DMEM+0.5 mM IBMX (Tocris, Abingdon, UK, Catalog Number 2845)) to a 1×10^6 cells/mL. Cell suspension, for a final assay concentration of 5000 cell/well was added using the multidrop to the pre-dispensed assay plate. The plate was then incubated at 37° C. for 30 mins, with 5% CO2. After incubation, EC80 concentration (7 nM) of PGE2 (EP4 agonist) was added to the plate. In parallel, a PGE2 dose-response curve was dispense to a separate plate. Assay buffer was then dispensed on top. The cAMP production was determined as manufacturer's instructions, before plates were read on a PheraStar fluorescence plate reader (BMG LabTech, Germany).
The pIC50 was converted to a functional pKb value using a modified Cheng Prussoff equation where Kd=agonist EC50 and Lhot=agonist challenge concentration;

T1 sequence (P35408 whole entry): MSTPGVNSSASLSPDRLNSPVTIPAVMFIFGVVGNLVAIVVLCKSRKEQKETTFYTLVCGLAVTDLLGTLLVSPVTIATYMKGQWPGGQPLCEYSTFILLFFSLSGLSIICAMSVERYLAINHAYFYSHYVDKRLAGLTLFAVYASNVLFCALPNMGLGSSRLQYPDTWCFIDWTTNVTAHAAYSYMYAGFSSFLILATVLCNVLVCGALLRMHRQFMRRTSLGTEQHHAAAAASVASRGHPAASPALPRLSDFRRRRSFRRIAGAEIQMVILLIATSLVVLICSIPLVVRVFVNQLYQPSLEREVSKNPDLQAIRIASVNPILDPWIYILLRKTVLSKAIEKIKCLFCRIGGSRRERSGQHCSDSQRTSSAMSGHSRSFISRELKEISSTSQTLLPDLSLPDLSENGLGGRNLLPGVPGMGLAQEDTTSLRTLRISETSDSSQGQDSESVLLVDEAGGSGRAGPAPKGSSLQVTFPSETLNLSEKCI

SMILES	Ki [nM]
COc1cccc(COC(C(=O)N[C@@H](C)c2ccc(C(=O)O)cc2)C(C)C)c1 (mixture of isomers) [Example 3, 4-((1S)-1-(2-((3-methoxybenzyl)oxy)-3-methylbutanamido)ethyl)benzoic acid]	> 67.6
COc1ccc(COC(C(=O)N[C@@H](C)c2ccc(C(=O)O)cc2)C(C)C)cc1 (mixture of isomers) [Example 6, 4-((1S)-1-(2-((4-methoxybenzyl)oxy)-3-methylbutanamido)ethyl)benzoic acid]	28.2
CC(O[C@@H](C(=O)N[C@@H](C)c1ccc(C(=O)O)cc1)C(C)C)c1ccc(F)cc1 (mixture of isomers) [Example 46, 4-((1 S)-1-((2R)-2-(1-(4-fluorophenyl)ethoxy)-3-methylbutanamido)ethyl)benzoic acid]	7.24
CC(C)C(OCc1ccc(C2COC2)cc1)C(=O)N[C@@H](C)c1ccc(C(=O)O)cc1 (mixture of isomers) [Example 47, 4-((1S)-1-(3-methyl-2-((4-(oxetan-3-yl)benzyl)oxy)butanamido)ethyl)benzoic acid]	64.6
CC(O[C@@H](C(=O)N[C@@H](C)c1ccc(C(=O)O)cc1)C(C)C)c1ccc(C(F)(F)F)cc1 (mixture of isomers) [Example 51, 4-((1S)-1-((2R)-3-methyl-2-(1-(4-(trifluoromethyl)phenyl)ethoxy)butanamido)ethyl)benzoic acid]	417
C[C@H](NC(=O)C(OCc1ccc(C(F)(F)F)cc1)C1CCC1)c1ccc(C(=O)O)cc1 (mixture of isomers) [Example 92, 4-((1S)-1-(2-cyclobutyl-2-((4-(trifluoromethyl)benzyl)oxy)acetamido)ethyl)benzoic acid]	4.68
CC(C)C(OCc1cccc(F)c1)C(=O)N[C@@H](C)c1ccc(C(=O)O)cc1 (single isomer, unassigned) [Example 17]	3.02
CC(C)C(OCc1cccc(F)c1)C(=O)N[C@@H](C)c1ccc(C(=O)O)cc1 (single isomer, unassigned) [Example 18]	457
CC(C)C(OCc1cccc(C2COC2)c1)C(=O)N[C@@H](C)c1ccc(C(=O)O)cc1 (single isomer, unassigned) [Example 48]	141
CC(C)C(OCc1cccc(C2COC2)c1)C(=O)N[C@@H](C)c1ccc(C(=O)O)cc1 (single isomer, unassigned) [Example 49]	2.29
CC(C)C(OCc1cccc(C2COC2)c1)C(=O)NC1(c2ccc(C(=O)O)cc2)CC1 (single isomer, unassigned) [Example 86, 4-(1-(3-methyl-2-((3-(oxetan-3-yl)benzyl)oxy)butanamido)cyclopropyl)benzoic acid]	0.447
CC(C)C(OCc1cccc(C2COC2)c1)C(=O)NC1(c2ccc(C(=O)O)cc2)CC1 (single isomer, unassigned) [Example 87, 4-(1-(3-methyl-2-((3-(oxetan-3-yl)benzyl)oxy)butanamido)cyclopropyl)benzoic acid]	> 603
C[C@H](NC(=O)C(OCc1ccc(C(F)(F)F)cc1)C1CCC1)c1ccc(C(=O)O)cc1 (single isomer, unassigned) [Example 93]	3.63
C[C@H](NC(=O)C(OCc1ccc(C(F)(F)F)cc1)C1CCC1)c1ccc(C(=O)O)cc1 (single isomer, unassigned) [Example 94]	5.01
CC(C)[C@@H](OCc1ccc(C(F)(F)F)cc1)C(=O)N[C@@H](C)c1ccc(C(=O)O)cc1 [Example 1, 4-((S)-1-((R)-3-methyl-2-((4-(trifluoromethyl)benzyl)oxy)butanamido)ethyl)benzoic acid]	0.776
CC(C)[C@@H](OCc1ccc(C(F)(F)F)cc1)C(=O)NC1(c2ccc(C(=O)O)cc2)CC1 [Example 2, (R)-4-(1-(3-methyl-2-((4-(trifluoromethyl)benzyl)oxy)butanamido)cyclopropyl)benzoic acid]	0.891

SMILES	Ki [nM]
CC(C)[C@H](OCc1ccc(F)cc1)C(=O)N[C@@H](C)c1ccc(C(=O)O)cc1 [Example 4, 4-((S)-1-((S)-2-((4-fluorobenzyl)oxy)-3-methylbutanamido)ethyl)benzoic acid]	> 195
CC(C)[C@@H](OCc1ccc(F)cc1)C(=O)N[C@@H](C)c1ccc(C(=O)O)cc1 [Example 5, 4-((S)-1-((R)-2-((4-fluorobenzyl)oxy)-3-methylbutanamido)ethyl)benzoic acid]	4.17
CC(C)[C@H](OCc1cccc(S(C)(=O)=O)c1)C(=O)N[C@@H](C)c1ccc(C(=O)O)cc1 [Example 7, 4-((S)-1-((S)-3-methyl-2-((3-(methylsulfonyl)benzyl)oxy)butanamido)ethyl)benzoic acid]	> 195
CC(C)[C@@H](OCc1cccc(S(C)(=O)=O)c1)C(=O)N[C@@H](C)c1ccc(C(=O)O)cc1 [Example 8, 4-((S)-1-((R)-3-methyl-2-((3-(methylsulfonyl)benzyl)oxy)butanamido)ethyl)benzoic acid]	8.71
CC(C)[C@H](OCc1ccc(S(C)(=O)=O)cc1)C(=O)N[C@@H](C)c1ccc(C(=O)O)cc1 [Example 9, 4-((S)-1-((S)-3-methyl-2-((4-(methylsulfonyl)benzyl)oxy)butanamido)ethyl)benzoic acid]	> 195
CC(C)[C@@H](OCc1ccc(S(C)(=O)=O)cc1)C(=O)N[C@@H](C)c1ccc(C(=O)O)cc1 [Example 10, 4-((S)-1-((R)-3-methyl-2-((4-(methylsulfonyl)benzyl)oxy)butanamido)ethyl)benzoic acid]	20.4
CC(C)[C@@H](OCc1ccc(Cl)cc1)C(=O)N[C@@H](C)c1ccc(C(=O)O)cc1 [Example 11, 4-((S)-1-((R)-2-((4-chlorobenzyl)oxy)-3-methylbutanamido)ethyl)benzoic acid]	3.16
CC(C)[C@@H](OCc1cccc(Cl)c1)C(=O)N[C@@H](C)c1ccc(C(=O)O)cc1 [Example 12, 4-((S)-1-((R)-2-((3-chlorobenzyl)oxy)-3-methylbutanamido)ethyl)benzoic acid]	0.813
CC(C)[C@@H](OCc1ccc(C(F)F)cc1)C(=O)N[C@@H](C)c1ccc(C(=O)O)cc1 [Example 13, 4-((S)-1-((R)-2-((4-(difluoromethyl)benzyl)oxy)-3-methylbutanamido)ethyl)benzoic acid]	2.34
CC(C)[C@@H](OCc1cccc(C(F)F)c1)C(=O)N[C@@H](C)c1ccc(C(=O)O)cc1 [Example 14, 4-((S)-1-((R)-2-((3-(difluoromethyl)benzyl)oxy)-3-methylbutanamido)ethyl)benzoic acid]	1.82
CC(C)[C@@H](OCc1cccc(C(F)(F)F)c1)C(=O)N[C@@H](C)c1ccc(C(=O)O)cc1 [Example 15, 4-((S)-1-((R)-3-methyl-2-((3-(trifluoromethyl)benzyl)oxy)butanamido)ethyl)benzoic acid]	0.288
CC(C)[C@H](OCc1ccc(C(F)(F)F)cc1)C(=O)N[C@@H](C)c1ccc(C(=O)O)cc1 [Example 16, 4-((S)-1-((S)-3-methyl-2-((4-(trifluoromethyl)benzyl)oxy)butanamido)ethyl)benzoic acid]	178
CC(C)[C@@H](OCc1ccccc1)C(=O)N[C@@H](C)c1ccc(C(=O)O)cc1 [Example 19, 4-((S)-1-((R)-2-(benzyloxy)-3-methylbutanamido)ethyl)benzoic acid]	12.9
CC(C)[C@@H](OCc1cccc(OC(F)(F)F)c1)C(=O)N[C@@H](C)c1ccc(C(=O)O)cc1 [Example 20, 4-((S)-1-((R)-3-methyl-2-((3-(trifluoromethoxy)benzyl)oxy)butanamido)ethyl)benzoic acid]	0.0955
CC(C)[C@@H](OCc1ccc(C#N)cc1)C(=O)N[C@@H](C)c1ccc(C(=O)O)cc1 [Example 21, 4-((S)-1-((R)-2-((4-cyanobenzyl)oxy)-3-methylbutanamido)ethyl)benzoic acid]	33.1
